Experimental data published in article PMC3901259, “Characterisation of the Metabolites of 1,8-Cineole Transferred into Human Milk: Concentrations and Ratio of Enantiomers” (Metabolites, 2013).

Columns and labels:
[1] = Determination of the ratios of enantiomers of chiral metabolites in human milk on chiral GC capillaries; type: in vivo
Description: The separation of the chiral metabolites of 1,8-cineole was successfully achieved using different β- or γ-cyclodextrin-based stationary phases (Rt-bDEXsa, Rt-bDEXse, Rt-bDEXsm and Rt-yDEXsa) for gas chromatographic analysis. Table S1, in the supplementary material, lists the usable separation phases and the respective retention indices (determined according to van den Dool and Kratz) for each pair of enantiomers. It was therefore decided to use the following capillaries for the analysis of the human milk samples: Rt-bDEXsm for separation of 2,3-dehydro-, α2,3-epoxy-, 2-oxo-, 3-oxo- and 9-hydroxy-1,8-cineole, and Rt-yDEXsa for separation of α2-hydroxy-, α3-hydroxy- and β2-hydroxy-1,8-cineole, under the GC conditions described in the experimental section.
For GC-MS analyses, an Agilent MSD quadrupole system (GC 7890A with MSD 5975C, Agilent Technologies, Waldbronn, Germany) coupled with a CIS 4C (cooled injection system) and an MPS 2 auto-sampler (Gerstel GmbH & Co. KG, Duisburg, Germany) were used. Data collection and analysis were performed with the MSD ChemStation E.02.00.493 (Agilent Technologies, Inc.) software. Quantification experiments were carried out on DB-FFAP and DB-5 capillaries (30 m length, 0.25 mm inner diameter, 0.25 µm film thickness, Agilent J&W GC Columns, USA), and for monitoring of the ratio of enantiomers the chiral capillaries Rt-bDEXsa, Rt-bDEXse, Rt-bDEXsm and Rt-yDEXsa (30 m length, 0.32 mm inner diameter, 0.25 µm film thickness, Restek GmbH, Bad Homburg, Germany) were utilised. Pre-columns of uncoated, deactivated fused silica (0.53 mm inner diameter, 0.5 to 3.5 m length) were used to ensure that no potentially present low-volatile residues could contaminate the analytical capillaries. The temperature programme of the column oven was as follows: 40 °C for 2 min, 4 °C/min up to 170 °C, 40 °C/min up to 230 °C (Rt-DEX capillaries), 240 °C (DB-FFAP) and 250 °C (DB-5), respectively, and hold time at end temperature of 5 to 10 min. As carrier gas, helium was used at a flow rate of 1.3 mL/min (velocity 41.1 cm/s). Injection of 1 or 2 µL was performed by the auto-sampler.
For the separation of the pairs of enantiomers of the chiral metabolites of 1,8-cineole, four different capillaries (Rt-bDEXsa, Rt-bDEXse, Rt-bDEXsm, and Rt-yDEXsa) were evaluated for optimisation of the peak-to-peak resolution of the enantiomers by injecting a mixture of all the metabolites in a dichloromethane solution and by varying the heating rate. Besides the separation of each pair of enantiomers from each other, it was also important to confirm that no other metabolite coeluted with any one of the enantiomers, because the milk samples would most probably contain all metabolites. Moreover, the separation conditions for the mixture of reference substances were also tested on some human milk sample extracts and modified accordingly, where necessary, to avoid coelution with interfering matrix compounds.
For calculation of the ratio of enantiomers (that is, the relative abundance of each enantiomer to the not separated mixture of enantiomers), the peak area of each enantiomer was divided by the sum of the peak areas of both enantiomers and multiplied by 100. With the known concentrations of the chiral metabolites in each milk sample, the absolute concentration of each single enantiomer was also calculated by multiplying the concentration with the respective percentage.

[2] = Quantification of 1,8-cineole metabolites in human milk (SAFE, GC-MS, internal standard and matrix calibration) after oral intake of 100 mg 1,8-cineole; type: in vivo; settings: for Absolute concentration in human milk: single determination
Description: Human milk samples were provided voluntarily by breastfeeding mothers after intake of the non-prescription pharmaceutical Soledum® (Klosterfrau Healthcare Group, Cologne, Germany). Before the beginning of the study, the participants were informed verbally, as well as in written form, about the study procedure and purpose and they were told that withdrawing from the study was possible at any time without giving any reason. All volunteers gave written consent to the analysis of their milk samples and anonymous publication of the resulting data. The Ethical Committee of the Medical Faculty, University Erlangen-Nuremberg, approved the experimental procedures. Each participant was handed a copy of the Soldeum® package instructions and was advised to read it before capsule intake. They were also advised to withdraw from the study if any negative reactions such as medication allergies or interactions with other drugs they were taking were to be expected. Additionally, the volunteers were informed verbally about potential effects of the pharmaceutical preparation on breastfeeding, i.e. the risk of an altered milk flavour and rejection of the milk by the nursling. Accordingly, if this would happen, the mothers were recommended to feed their babies with stored human milk or formula milk products.
The milk donors were between the ages of 29 and 40 years (mean 34 years). During their participation in the study, their breast milk production had to be normal and in excess of their infants' needs, with no breast infections and no overall medical complaints present. Five participants were primiparous, three were multiparous and the breast milk samples were from 19 weeks to 19 months postpartum. For sampling, either electrical or mechanical breast pumps or manual expression techniques were applied, resulting in sample volumes between 10 and 100 mL. The samples were immediately subjected to sample preparation after a maximum storage time of five hours at 7 °C or were stored in a freezer at −20 °C for up to five days.
The participating volunteers were asked to ingest one Soledum® capsule, containing 100 mg 1,8-cineole, and to wait until they themselves or another person began to notice the eucalyptus-like odour on their breath. […] The donors were instructed to keep notes on the dates of capsule intake, first eucalyptus-like odour on their breath and exact sampling time. Unfortunately it was difficult for some mothers to detect the smell on their breath so they expressed the samples after some time without having noticed the smell, or reported having been unsure about the smell. […] Some of the donors repeated the whole experiment and some expressed more than one sample after the capsule intake, resulting in 14 samples in total, from 8 different mothers.
Extracts containing the volatile fraction of the human milk samples were prepared by Solvent Assisted Flavour Evaporation (SAFE) after addition of deuterated 1,8-cineole as internal standard (solution in dichloromethane), followed by 10 min of stirring, then another addition of dichloromethane (50% v/v), and 30 min of stirring. The resulting stable phase was distilled in the SAFE-apparatus at 50 °C and approximately 1x10^−4 mbar. The volatile fraction of the samples was frozen with liquid nitrogen. After thawing, it consisted of two phases, formed by the dichloromethane and by the water out of the milk. The water phase was extracted three times with dichloromethane, and the solvent phases were combined and dried over anhydrous Na2SO4. Finally the sample extracts were concentrated by microdistillation according to Bemelmans at 50 °C to a total volume of 50 to 200 μL.
For GC-MS analyses, an Agilent MSD quadrupole system (GC 7890A with MSD 5975C, Agilent Technologies, Waldbronn, Germany) coupled with a CIS 4C (cooled injection system) and an MPS 2 auto-sampler (Gerstel GmbH & Co. KG, Duisburg, Germany) were used. […]

[3] = design: method as in PMID 20425757; settings: one volunteer, sage tea, overall intake 1.02 mg 1,8-cineole; cited from earlier work
[4] = sample A-1b (odour yes), oral 100 mg 1,8-cineole, values given with (<x) are approximations
[5] = sample B-1 (odour yes), oral 100 mg 1,8-cineole, values given with (<x) are approximations
[6] = sample B-2b (odour yes), oral 100 mg 1,8-cineole, values given with (<x) are approximations
[7] = sample B-2c (no odour), oral 100 mg 1,8-cineole
[8] = sample C (no odour; very weak odour not caused by 1,8-cineole), oral 100 mg 1,8-cineole, values given with (<x) are approximations
[9] = sample D-1 (no odour), oral 100 mg 1,8-cineole, values given with (<x) are approximations
[10] = sample D-2 (odour yes), oral 100 mg 1,8-cineole, values given with (<x) are approximations
[11] = sample E-2 (odour yes), oral 100 mg 1,8-cineole, values given with (<x) are approximations
[12] = sample F (no odour), parent ingested two capsules, values given with (<x) are approximations
[13] = sample G (odour yes), oral 100 mg 1,8-cineole, values given with (<x) are approximations
[14] = sample H (odour yes), oral 100 mg 1,8-cineole, values given with (<x) are approximations

Structure (SMILES) | Absolute concentration in human milk [2, 4] | Absolute concentration in human milk [2, 5] | Estimated maximum level in human milk (concentration calculated with the last calibration point, in parentheses) ([2]; sample B-2b (odour yes)) | Absolute concentration in human milk [2, 6] | Absolute concentration in human milk [2, 7] | Estimated maximum level in human milk (concentration calculated with the last calibration point, in parentheses) ([2]; sample C (no odour)) | Absolute concentration in human milk [2, 8] | Estimated maximum level in human milk (concentration calculated with the last calibration point, in parentheses) ([2]; sample D-1 (no odour)) | Absolute concentration in human milk [2, 9] | Estimated maximum level in human milk (concentration calculated with the last calibration point, in parentheses) ([2]; sample D-2 (odour yes)) | Absolute concentration in human milk [2, 10] | Absolute concentration in human milk [2, 11] | Absolute concentration in human milk [2, 12] | Estimated maximum level in human milk (concentration calculated with the last calibration point, in parentheses) ([2]; sample G (odour yes)) | Absolute concentration in human milk [2, 13] | Absolute concentration in human milk [2, 14] | Concentration in plasma [3] | also measured
CC12CCC(C(=O)C1)C(C)(C)O2 (stereo not shown) [3-oxo-1,8-cineole] | 1.80 µg/kg | 3.32 µg/kg | < 2.37 µg/kg | 1.47 µg/kg | 0.68 µg/kg | < 1.10 µg/kg | 0.14 µg/kg | < 1.22 µg/kg | 0.77 µg/kg | < 2.20 µg/kg | 2.12 µg/kg | 2.41 µg/kg | 0.07 µg/kg | < 4.02 µg/kg | 3.38 µg/kg | 3.85 µg/kg |  | Enantiomeric ratio in human milk [1]: nearly enantiomerically pure; Percentage E1, range as described for boxplot ([1]; human milk samples, Figure 5): under 10%; Estimated maximum level in human milk (concentration calculated with the last calibration point, in parentheses) ([2]; sample A-1a (no odour)): < 1.57 µg/kg; Absolute concentration in human milk ([2]; sample A-1a (no odour), oral 100 mg 1,8-cineole, values given with (<x) lie beyond calibration range, approximation): 0.01 µg/kg; Estimated maximum level in human milk (concentration calculated with the last calibration point, in parentheses) ([2]; sample F (no odour), two capsules): < 3.00 µg/kg
CC1(C)OC2(CO)CCC1CC2 [7-hydroxy-1,8-cineole] | 0.56 µg/kg | 1.14 µg/kg |  | 4.42 µg/kg | 0.18 µg/kg |  |  |  |  |  | 0.62 µg/kg | 5.19 µg/kg |  | < 1.06 µg/kg | 0.84 µg/kg | 1.87 µg/kg | below the limit of quantitation | Absolute concentration in human milk ([2]; sample B-2a (no odour), oral 100 mg 1,8-cineole): 0.21 µg/kg
CC12CCC(O)(CC1)C(C)(C)O2 [4-hydroxy-1,8-cineole] | 5.96 µg/kg | 6.35 µg/kg |  | 5.62 µg/kg | 2.32 µg/kg |  |  |  | 2.24 µg/kg |  | 7.13 µg/kg | 8.92 µg/kg | 3.62 µg/kg |  | 3.39 µg/kg | 5.66 µg/kg |  | 
CC12CCC(C(O)C1)C(C)(C)O2 (stereo not drawn) [a3-hydroxy-1,8-cineole, α3-Hydroxy-1,8-cineole] | 0.77 µg/kg | 1.06 µg/kg | < 2.07 µg/kg | 0.54 µg/kg | 0.05 µg/kg | < 0.96 µg/kg | 0.05 µg/kg | < 1.06 µg/kg | 0.03 µg/kg | < 1.92 µg/kg | 0.41 µg/kg | 0.96 µg/kg |  | < 3.51 µg/kg | 0.72 µg/kg | 1.53 µg/kg | below the limit of quantitation | Estimated maximum level in human milk (concentration calculated with the last calibration point, in parentheses) ([2]; sample A-1b (odour yes)): < 1.14 µg/kg; Estimated maximum level in human milk (concentration calculated with the last calibration point, in parentheses) ([2]; sample B-1 (odour yes)): < 1.65 µg/kg; Estimated maximum level in human milk (concentration calculated with the last calibration point, in parentheses) ([2]; sample E-2 (odour yes)): < 1.78 µg/kg; Estimated maximum level in human milk (concentration calculated with the last calibration point, in parentheses) ([2]; sample H (odour yes)): < 1.96 µg/kg
CC1(C)OC2(C)CCC1CC2O (stereo not drawn) [b2-hydroxy-1,8-cineole, β2-hydroxy-1,8-cineole] | 6.00 µg/kg | 6.72 µg/kg |  | 5.82 µg/kg | 1.71 µg/kg | < 0.96 µg/kg | 0.33 µg/kg |  | 1.42 µg/kg |  | 7.35 µg/kg | 11.44 µg/kg |  |  | 3.80 µg/kg | 7.90 µg/kg |  | 
